Patent publication US20040067998A1, “Antifungal and/or antiparasitic pharmaceutical composition and novel indole derivatives as active principle of such a composition” (priority 2003, published 2004)
In brackets after ≈: the same amount, converted by molar mass. Several values for one entry are separate records, joined by “and”; a condition that tells them apart may be missing. Equal entries are not always repeated. Entries after “also recorded” stand apart in the source; their conditions may differ. Where two headings read alike, the source gives them in different places.

Assays:
Assay type in all cases: cell-based
[1] = tested on: Candida albicans (strain n° CA980001); experiment: Antifungal activity on a clinical strain of Candida albicans (MTT colorimetric microplate test); conditions: for CMI or CI80 Candida albicans (CA980001) / MIC: strain CA980001; for activity of inhibition of Candida albicans (in words): summary of Tables 27 to 40; for MIC: read-out: CMI or CI80 Candida albicans (CA980001)
[2] = tested on: Aspergillus fumigatus (strain n°AF 980003); experiment: Antifungal activity on a clinical strain of Aspergillus fumigatus (Alamar Blue microplate test); conditions: for CMI or CI80 Aspergillus fumigatus (AF980003) / MIC: strain AF980003; for activity against Aspergillus fumigatus (in words): summary of Tables 27 to 40; for MIC: read-out: CMI or CI80 Aspergillus fumigatus (AF980003)
[3] = tested on: promastigote stage of Leishmania mexicana; experiment: Antiparasitic activity on the promastigote form of Leishmania (MTT); conditions: for IC50: read-out: CI50 Leishmania mexicana Promastigotes
[4] = tested on: Candida albicans (4 strains); experiment: Antifungal activity in vitro on clinical strains of Candida: albicans (4 strains)
[5] = tested on: Candida krusei (4 strains); experiment: Antifungal activity in vitro on clinical strains of Candida: krusei (4 strains)
[6] = tested on: Candida lusitaniae (1 strain); experiment: Antifungal activity in vitro on clinical strains of Candida: lusitaniae (1 strain)
[7] = tested on: Candida parapsilosis (2 strains); experiment: Antifungal activity in vitro on clinical strains of Candida: parapsilosis (2 strains)
[8] = promastigotes, 36 h at 26° C., MTT

SMILES	CMI or CI80 Candida albicans (CA980001) [1]	CMI or CI80 Aspergillus fumigatus (AF980003) [2]	activity against Aspergillus fumigatus (in words) [2]	CI50 Leishmania mexicana Promastigotes ([3]; promastigotes) [µg/mL]	IC50 ([3]; promastigotes) [µM]	MIC [2] [µM]	CI50 Leishmania mexicana Promastigotes [3] [µg/mL]	IC50 [3] [µM]	activity of inhibition of Candida albicans (in words) [1]	MIC [1] [µM]	further results
CCn1c(C(c2ccc(Cl)cc2)n2ccnc2)c(C)c2cc(Br)ccc21 (stereo not drawn) [compound 33]	59 ± 1 μM and 25 ± 0.5 μg/mL	56 ± 3 μM and 24 ± 1 μg/mL	strong activity	2.87 ± 2 (≈ 6.69 µM)	6.7 ± 2.1	–	–	–	–	–	activity against Leishmania mexicana (in words) [3]: strong activity
CCn1c(C(c2ccc(Cl)cc2Cl)n2ccnc2)c(C)c2cc(Br)ccc21 (stereo not drawn) [compound 34]	48 ± 0.5 μM and 22 ± 0.5 μg/mL	–	–	–	–	>100	1.99 ± 0.04 (≈ 4.3 µM)	4.28 ± 0.1	–	–	activity against Leishmania mexicana (in words) [3]: strong activity
CCn1c(C)c(C(c2ccc(F)cc2)n2ccnc2)c2ccccc21 (stereo not drawn) [compound 43]	6 ± 1 μM and 2.0 ± 1 μg/mL	53 ± 3 μM and 17 ± 1 μg/mL	–	1.88 ± 0.1 (≈ 5.64 µM)	5.9 ± 0.14	–	–	–	significant activity	–	–
CCN1CCc2cccc(C(c3ccc(F)cc3)n3ccnc3)c21 (stereo not drawn) [compound 50]	–	–	most active	–	–	–	–	–	most active	–	CMI or CI80 Candida albicans (CA980001) ([1]; 24 h at 37° C., MTT): 0.67 ± 0.01 μM and 0.22 ± 0.01 μg/ml; CMI or CI80 Aspergillus fumigatus (AF980003) ([2]; Alamar Blue): 5.4 ± 0.2 μM and 1.7 ± 0.1 μg/ml; activity against Leishmania mexicana (in words) [3]: most active; CI50 Leishmania mexicana Promastigotes [3, 8]: 0.24 ± 0.017 µg/mL (≈ 0.747 µM); IC50 [3, 8]: 0.74 ± 0.017 µM
CCn1ccc2cccc(C(c3ccc(F)cc3)n3ccnc3)c21 (stereo not drawn) [compound 57]	0.67 ± 0.02 μM and 0.21 ± 0.01 μg/mL	20 ± 5 μM and 6 ± 2 μg/mL	most active	0.80 ± 1.3 (≈ 2.5 µM)	2.49 ± 1.3	–	–	–	most active	–	–
CCn1ccc2cc(Br)cc(C(c3ccc(F)cc3)n3ccnc3)c21 (stereo not drawn) [compound 58]	0.69 ± 0.01 μM and 0.27 ± 0.01 μg/mL	59 ± 4 μM and 23 ± 2 μg/mL	strong activity	2.4 ± 0.12 (≈ 6.03 µM)	6.2 ± 0.35	–	–	–	most active	–	–
Clc1ccc(Cn2cc(CCn3ccnc3)c3ccccc32)cc1 [compound 59]	–	–	–	–	–	>100	15.6 (≈ 46.5 µM)	87	–	>100	–
Clc1ccc(Cn2cc(CCCn3ccnc3)c3ccccc32)cc1 [compound 60]	–	–	–	–	–	>100	26.1 (≈ 74.6 µM)	74.7	–	>100	–
Clc1ccccc1Cn1cc(C2(Cn3ccnc3)CCCC2)c2ccccc21 [compound 62]	–	–	–	–	–	>100	28.38 (≈ 72.8 µM)	72.8	–	>100	–
Cc1c(C(C)n2ccnc2)c2ccccc2n1Cc1ccc(F)cc1 (stereo not drawn) [compound 72]	67 ± 3 μM and 22 ± 1 μg/mL	69 ± 1 μM and 23 ± 1 μg/mL	–	–	–	–	0.7 ± 0.3 (≈ 2.1 µM)	2 ± 1	–	–	–
OC(Cn1ccnc1)(Cn1ccc2ccccc21)c1ccc(Br)cc1 (stereo not drawn) [compound 73]	0.02 µg/mL	–	–	2.7 ± 0.08 (≈ 6.81 µM)	6.65 ± 0.22	>100	–	–	most active	0.06 (≈ 0.0238 µg/mL)	activity against strains of Candida albicans (in words) ([4]; clinical strains): active; also recorded: very active; CI80 on clinical strains of Candida ([4]; strain CA980001 (Candida albicans)): 0.06 ± 0.002 µM; CI80 on clinical strains of Candida ([4]; strain CA980002 (Candida albicans)): 0.63 ± 0.016 µM; CI80 on clinical strains of Candida ([4]; strain CA980003 (Candida albicans)): 0.55 ± 0.0963 µM; CI80 on clinical strains of Candida ([4]; strain CA980005 (Candida albicans)): 0.53 ± 0.022 µM; activity against Candida krusei (in words) ([5]; clinical strains, b748: one strain): active; also recorded: very active; CI80 on clinical strains of Candida ([5]; strain CK980001 (Candida krusei)): 0.65 ± 0.01 µM; CI80 on clinical strains of Candida ([5]; strain CK980002 (Candida krusei)): 12.81 ± 2.22 µM; CI80 on clinical strains of Candida ([5]; strain CK980003 (Candida krusei)): 92.27 ± 3.90 µM; CI80 on clinical strains of Candida ([5]; strain CK980004 (Candida krusei)): >100 µM; activity against Candida lusitaniae (in words) ([6]; clinical strain): very active; CI80 on clinical strains of Candida ([6]; strain CL980001 (Candida lusitaniae)): 0.63 ± 0.01 µM; activity against Candida parapsilosis (in words) ([7]; clinical strains): very active; CI80 on clinical strains of Candida ([7]; strain CP980001 (Candida parapsilosis)): 0.67 ± 0.0 µM; CI80 on clinical strains of Candida ([7]; strain CP980002 (Candida parapsilosis)): 4.65 ± 0.11 µM
OC(Cn1ccnc1)(Cn1ccc2ccccc21)c1ccc(F)cc1F (stereo not drawn) [compound 77]	0.00035 µg/mL	11 ± 7 μM and 4 ± 2 μg/mL	–	1.59 (≈ 4.5 µM)	4.5	–	–	–	most active	0.0011 (≈ 0.000389 µg/mL)	–
Clc1ccc(C(Cn2ccc3ccccc32)n2ccnc2)cc1 (stereo not drawn) [compound 85]	–	88 ± 5 μM and 28 ± 2 μg/mL	–	–	–	–	–	> 100	–	>100	–
